pIC50: −log10 of the molar value.

The target of this experiment is IRE1α (Homo sapiens (Human), UniProt O75460, D688N). Briefly: IRE1α TR-FRET competition binding assay (IRE1α HTRF). Particulars: TR-FRET competition binding to kinase domain of IRE1α. Put shortly: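 Competition of compounds against an Alexa fluor 647 ATP-site probe (2 nM final) for the His-tagged kinase domain (0.25 nM final), detected via 2 nM Eu anti-His antibody by TR-FRET, 665 and 615 nm emission. Protein–antibody premix 1 h, 4° C; reaction 1 h, room temperature, pH 7.5 HEPES buffer.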
IRE1α, sequence (O75460 547-977 D688N): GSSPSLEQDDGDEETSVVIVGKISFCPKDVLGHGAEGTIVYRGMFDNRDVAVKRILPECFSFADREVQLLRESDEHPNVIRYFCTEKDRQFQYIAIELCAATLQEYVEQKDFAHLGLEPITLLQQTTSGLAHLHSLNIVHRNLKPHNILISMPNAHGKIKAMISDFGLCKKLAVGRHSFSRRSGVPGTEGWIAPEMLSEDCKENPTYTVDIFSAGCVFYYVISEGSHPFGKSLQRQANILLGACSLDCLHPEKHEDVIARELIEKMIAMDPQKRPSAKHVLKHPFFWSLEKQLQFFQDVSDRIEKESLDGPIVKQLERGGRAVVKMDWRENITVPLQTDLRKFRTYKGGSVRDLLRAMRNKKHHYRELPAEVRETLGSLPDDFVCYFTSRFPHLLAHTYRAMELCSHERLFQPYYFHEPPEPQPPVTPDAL
Take `CC(C)n1c(=O)c(-c2cnc(NS(=O)(=O)CCC(F)(F)F)nc2)cc2cnc(N[C@H]3CC[C@H](N(C)C)CC3)nc21` [Example 233, N-(5-(2-(((1r,4r)-4-(Dimethylamino)cyclohexyl)amino)-8-isopropyl-7-oxo-7,8-dihydropyrido[2,3-d]pyrimidin-6-yl)pyrimidin-2-yl)-3,3,3-trifluoropropane-1-sulfonamide]: the pIC50 (commonly −log10 of the IC50, conventionally taken in molar units) was 8.89.

The molecule `COCCN1CC2(CCC(Nc3ncc4cc(-c5ccc(NS(=O)(=O)CCC(F)(F)F)c(F)c5)c(=O)n(C(C)C)c4n3)CC2)C1` [Example 234, 3,3,3-Trifluoro-N-(2-fluoro-4-(8-isopropyl-2-((2-(2-methoxyethyl)-2-azaspiro[3.5]nonan-7-yl)amino)-7-oxo-7,8-dihydropyrido[2,3-d]pyrimidin-6-yl)phenyl)propane-1-sulfonamide] had a pIC50 of 9.70.

`CC(C)n1c(=O)c(-c2ccc(NS(=O)(=O)CCC(F)(F)F)c(F)c2)cc2cnc(NC3CCC4(CC3)CN(CCF)C4)nc21` [Example 235, 3,3,3-trifluoro-N-(2-fluoro-4-(2-((2-(2-fluoroethyl)-2-azaspiro-[3.5]nonan-7-yl)amino)-8-isopropyl-7-oxo-7,8-dihydropyrido[2,3-d]-pyrimidin-6-yl)phenyl)-propane-1-sulfonamide] gave a pIC50 of 9.52.

In turn, `CC(C)n1c(=O)c(-c2ccc(NS(=O)(=O)Cc3ccccc3)nc2)nc2cnc(N[C@@H]3CNC[C@@H](F)C3)nc21` [Example 236, N-[5-[2-[[(3S,5S)-5-fluoro-3-piperidyl]amino]-8-isopropyl-7-oxo-pteridin-6-yl]-2-pyridyl]-1-phenyl-methanesulfonamide] had a pIC50 of 9.30.

Regarding `CC(C)n1c(=O)c(-c2ccc(NS(=O)(=O)Cc3ccccc3F)nc2)nc2cnc(N[C@@H]3CNC[C@@H](F)C3)nc21` [Example 237, 1-(2-Fluorophenyl)-N-[5-[2-[[(3S,5S)-5-fluoro-3-piperidyl]amino]-8-isopropyl-7-oxo-pteridin-6-yl]-2-pyridyl]methanesulfonamide], the negative-log IC50 (pIC50) is 9.52.

Consider `CC(C)n1c(=O)c(-c2ccc(NS(=O)(=O)CCC(C)(F)F)nc2)nc2cnc(N[C@H]3CC[C@H](N(C)C)CC3)nc21` [Example 238, N-[5-[2-[[4-(Dimethylamino)cyclohexyl]amino]-8-isopropyl-7-oxo-pteridin-6-yl]-2-pyridyl]-3,3-difluoro-butane-1-sulfonamide], for which the pIC50 was 9.40.

`CC(C)n1c(=O)c(-c2cc(F)c(NS(=O)(=O)CCC(F)(F)F)c(F)c2)nc2cnc(N[C@H]3CC[C@H](N(C)C)CC3)nc21` [Example 239, N-[4-[2-[[4-(Dimethylamino)cyclohexyl]amino]-8-isopropyl-7-oxo-pteridin-6-yl]-2,6-difluoro-phenyl]-3,3,3-trifluoro-propane-1-sulfonamide] gave a negative logarithm of the IC50 (pIC50) of 9.70.

Molecule `CC(C)n1c(=O)c(-c2cc(F)c(NS(=O)(=O)CC3(C(F)(F)F)CC3)c(F)c2)nc2cnc(N[C@H]3CC[C@H](N(C)C)CC3)nc21` [Example 240, N-[4-[2-[[4-(Dimethylamino)cyclohexyl]amino]-8-isopropyl-7-oxo-pteridin-6-yl]-2,6-difluoro-phenyl]-1-[1-(trifluoromethyl)cyclopropyl]methanesulfonamide] showed a pIC50 of 10.00.

Turning to `CC(C)n1c(=O)c(-c2cc(F)c(NS(=O)(=O)CCC(C)(F)F)c(F)c2)nc2cnc(N[C@H]3CC[C@H](N(C)C)CC3)nc21` [Example 241, N-[4-[2-[[4-(Dimethylamino)cyclohexyl]amino]-8-isopropyl-7-oxo-pteridin-6-yl]-2,6-difluoro-phenyl]-3,3-difluoro-butane-1-sulfonamide], the pIC50 was 9.70.

`CCCS(=O)(=O)Nc1c(F)cc(-c2nc3cnc(N[C@H]4CC[C@H](N(C)C)CC4)nc3n(C(C)C)c2=O)cc1F` [Example 242, N-[4-[2-[[4-(Dimethylamino)cyclohexyl]amino]-8-isopropyl-7-oxo-pteridin-6-yl]-2,6-difluoro-phenyl]propane-1-sulfonamide] showed a pIC50 of 10.00.

`CC(C)n1c(=O)c(-c2cc(F)c(NS(=O)(=O)Cc3ccc(Cl)cc3)c(F)c2)nc2cnc(N[C@H]3CC[C@H](N(C)C)CC3)nc21` [Example 243, 1-(4-Chlorophenyl)-N-[4-[2-[[4-(dimethylamino)cyclohexyl]amino]-8-isopropyl-7-oxo-pteridin-6-yl]-2,6-difluoro-phenyl]methanesulfonamide] gave a pIC50 of 9.10.

In the case of `CC(C)n1c(=O)c(-c2cc(F)c(NS(=O)(=O)Cc3ccc(C(F)F)cc3)c(F)c2)nc2cnc(N[C@H]3CC[C@H](N(C)C)CC3)nc21` [Example 244, 1-[4-(Difluoromethyl)phenyl]-N-[4-[2-[[4-(dimethylamino)cyclohexyl]amino]-8-isopropyl-7-oxo-pteridin-6-yl]-2,6-difluoro-phenyl]methanesulfonamide], the pIC50 was 9.70.

In the case of `CC(C)n1c(=O)c(-c2cc(F)c(NS(=O)(=O)Cc3ccc(F)cc3)c(F)c2)nc2cnc(N[C@H]3CC[C@H](N(C)C)CC3)nc21` [Example 245, N-[4-[2-[[4-(Dimethylamino)cyclohexyl]amino]-8-isopropyl-7-oxo-pteridin-6-yl]-2,6-difluoro-phenyl]-1-(4-fluorophenyl)methanesulfonamide], the negative logarithm of the IC50 (pIC50) was 10.00.

For the molecule `Cc1ccc(CS(=O)(=O)Nc2c(F)cc(-c3nc4cnc(N[C@H]5CC[C@H](N(C)C)CC5)nc4n(C(C)C)c3=O)cc2F)cc1` [Example 246, N-[4-[2-[[4-(Dimethylamino)cyclohexyl]amino]-8-isopropyl-7-oxo-pteridin-6-yl]-2,6-difluoro-phenyl]-1-(p-tolyl)methanesulfonamide], the pIC50 was 9.70.

As to `CC(C)n1c(=O)c(-c2cc(F)c(NS(=O)(=O)Cc3ccccc3)c(F)c2)nc2cnc(N[C@H]3CC[C@H](N(C)C)CC3)nc21` [Example 247, N-[4-[2-[[4-(Dimethylamino)cyclohexyl]amino]-8-isopropyl-7-oxo-pteridin-6-yl]-2,6-difluoro-phenyl]-1-phenyl-methanesulfonamide], the pIC50 was 10.00.

On to `CC(C)n1c(=O)c(-c2cc(F)c(NS(=O)(=O)CC(F)(F)CC3CC3)c(F)c2)nc2cnc(N[C@H]3CC[C@H](N(C)C)CC3)nc21` [Example 248, 3-Cyclopropyl-N-[4-[2-[[4-(dimethylamino)cyclohexyl]amino]-8-isopropyl-7-oxo-pteridin-6-yl]-2,6-difluoro-phenyl]-2,2-difluoro-propane-1-sulfonamide], for which the pIC50 is 9.70.

`CC(C)n1c(=O)c(-c2cc(F)c(NS(=O)(=O)CC3CC(F)(F)C3)c(F)c2)nc2cnc(N[C@H]3CC[C@H](N(C)C)CC3)nc21` [Example 249, 1-(3,3-Difluorocyclobutyl)-N-[4-[2-[[4-(dimethylamino)cyclohexyl]amino]-8-isopropyl-7-oxo-pteridin-6-yl]-2,6-difluoro-phenyl]methanesulfonamide] gave a pIC50 of 9.70.

Take `Cc1nc(NS(=O)(=O)CCC(F)(F)F)ccc1-c1nc2cnc(N[C@H]3CC[C@H](N(C)C)CC3)nc2n(C(C)C)c1=O` [Example 251, N-[5-[2-[[4-(Dimethylamino)cyclohexyl]amino]-8-isopropyl-7-oxo-pteridin-6-yl]-6-methyl-2-pyridyl]-3,3,3-trifluoro-propane-1-sulfonamide]: the pIC50 was 8.15.

`Cc1nc(NS(=O)(=O)Cc2ccc(F)cc2)ccc1-c1nc2cnc(N[C@H]3CC[C@H](N(C)C)CC3)nc2n(C(C)C)c1=O` [Example 252, N-[5-[2-[[4-(Dimethylamino)cyclohexyl]amino]-8-isopropyl-7-oxo-pteridin-6-yl]-6-methyl-2-pyridyl]-1-(4-fluorophenyl)methanesulfonamide] had a pIC50 of 9.00.

The molecule `Cc1nc(NS(=O)(=O)c2ccccc2F)ccc1-c1nc2cnc(N[C@H]3CC[C@H](N(C)C)CC3)nc2n(C(C)C)c1=O` [Example 253, N-[5-[2-[[4-(Dimethylamino)cyclohexyl]amino]-8-isopropyl-7-oxo-pteridin-6-yl]-6-methyl-2-pyridyl]-2-fluoro-benzenesulfonamide] gave a pIC50 of 9.52.

In turn, `Cc1nc(NS(=O)(=O)c2ccccc2Cl)ccc1-c1nc2cnc(N[C@H]3CC[C@H](N(C)C)CC3)nc2n(C(C)C)c1=O` [Example 254, N-[5-[2-[[4-(Dimethylamino)cyclohexyl]amino]-8-isopropyl-7-oxo-pteridin-6-yl]-6-methyl-2-pyridyl]-2-chloro-benzenesulfonamide] had a pIC50 of 9.52.

In turn, `Cc1nc(NS(=O)(=O)c2ccccc2C#N)ccc1-c1nc2cnc(N[C@H]3CC[C@H](N(C)C)CC3)nc2n(C(C)C)c1=O` [Example 255, N-[5-[2-[[4-(Dimethylamino)cyclohexyl]amino]-8-isopropyl-7-oxo-pteridin-6-yl]-6-methyl-2-pyridyl]-2-cyano-benzenesulfonamide] had a pIC50 of 9.70.

`CC(C)n1c(=O)c(-c2ccc(NS(=O)(=O)CC3CC34CC4)c(F)c2)nc2cnc(N[C@H]3CC[C@H](N(C)C)CC3)nc21` (stereo partly shown) [Example 256, N-[4-[2-[[4-(Dimethylamino)cyclohexyl]amino]-8-isopropyl-7-oxo-pteridin-6-yl]-2-fluoro-phenyl]-1-spiro[2.2]pentan-2-yl-methanesulfonamide] showed a pIC50 of 9.52.

As for `CC(C)n1c(=O)c(-c2ccc(NS(=O)(=O)CC3C(F)(F)C34CCC4)c(F)c2)nc2cnc(N[C@H]3CC[C@H](N(C)C)CC3)nc21` (stereo partly shown) [Example 257, 1-(2,2-Difluorospiro[2.3]hexan-1-yl)-N-[4-[2-[[4-(dimethylamino)cyclohexyl]amino]-8-isopropyl-7-oxo-pteridin-6-yl]-2-fluoro-phenyl]methanesulfonamide], the pIC50 is 9.70.

`CC(C)n1c(=O)c(-c2ccc(NS(=O)(=O)CC3(C(C)(F)F)CC3)c(F)c2)nc2cnc(N[C@H]3CC[C@H](N(C)C)CC3)nc21` [Example 258, 1-[1-(1,1-Difluoroethyl)cyclopropyl]-N-[4-[2-[[4-(dimethylamino)cyclohexyl]amino]-8-isopropyl-7-oxo-pteridin-6-yl]-2-fluoro-phenyl]methanesulfonamide] gave a pIC50 of 9.70.

The record behind these values is patent publication US12344603B2 (Genentech, Inc., priority 2020, dated 2025).
